Results from PMC6399351, “Cationic Intrinsically Disordered Antimicrobial Peptides (CIDAMPs) Represent a New Paradigm of Innate Defense with a Potential for Novel Anti-Infectives” (Scientific Reports, 2019).
Where two headings read alike, the source gives them in different places. Ends that are not written are not given here. Peptide text beside a SMILES is read from it. * marks the point of attachment. Palmitoyl = CCCCCCCCCCCCCCCC(=O)*; Myristoyl = CCCCCCCCCCCCCC(=O)*

What was measured:
S. aureus ATCC 6538 = settings: CFU assay, 10 mM NaP
P. aeruginosa ATCC 10145 = settings: CFU assay, 10 mM NaP

| Molecule | LD90 (P. aeruginosa ATCC 10145; pH 5.5, 0.25% glucose) [µg/mL] | LD100 (P. aeruginosa ATCC 10145; pH 5.5, 0.25% glucose) [µg/mL] | LD100 (P. aeruginosa ATCC 10145; pH 5.5, 1% TSB) [µg/mL] | LD90 (P. aeruginosa ATCC 10145; pH 5.5, 1% TSB) [µg/mL] | other results |
| --- | --- | --- | --- | --- | --- |
| N=C(N)NCCC[C@H](NC(=O)[C@H](CC(=O)O)NC(=O)[C@H](CS)NC(=O)[C@H](CO)NC(=O)[C@H](CC(N)=O)NC(=O)[C@H](CO)NC(=O)[C@H](CCCNC(=N)N)NC(=O)[C@H](CCC(N)=O)NC(=O)[C@H](CCCNC(=N)N)NC(=O)[C@H](CCCNC(=N)N)NC(=O)[C@H](CS)NC(=O)[C@H](CCC(N)=O)NC(=O)[C@H](Cc1c[nH]cn1)NC(=O)[C@H](CO)NC(=O)[C@H](CCCNC(=N)N)NC(=O)[C@H](Cc1ccccc1)NC(=O)[C@H](Cc1c[nH]cn1)NC(=O)[C@H](CCCNC(=N)N)NC(=O)[C@H](Cc1c[nH]cn1)NC(=O)[C@H](Cc1c[nH]cn1)NC(=O)[C@@H](N)CO)C(=O)O [LCE-3C55-75] (H-SHHRHFRSHQCRRQRSNSCDR-OH; N-terminus and C-terminus assumed) | – | – | – | – | LD90 (S. aureus ATCC 6538; pH 5.5, 0.25% glucose): 0.59 µg/mL; LD100 (S. aureus ATCC 6538; pH 5.5, 0.25% glucose): > 150 µg/mL |
| CCCCCCCCCCCCCC(=O)NCC(=O)N[C@@H](CCCNC(=N)N)C(=O)N[C@@H](CCCNC(=N)N)C(=O)NCC(=O)N[C@@H](CO)C(=O)NCC(=O)N[C@@H](CC(C)C)C(=O)NCC(=O)N[C@@H](CCCNC(=N)N)C(=O)N[C@@H](CO)C(=O)N[C@@H](CO)C(=O)N[C@@H](CO)C(=O)N[C@@H](CCCNC(=N)N)C(=O)NCC(=O)N[C@@H](CCC(N)=O)C(=O)N[C@@H](CCCNC(=N)N)C(=O)NCC(=O)N[C@@H](CO)C(=O)NCC(=O)N[C@@H](CO)C(=O)NCC(=O)N[C@@H](CCCNC(=N)N)C(=O)O [Myr-HR 1-18-HR] (Myristoyl-GRRGSGLGRSSSRGQRGSGSGR-OH; C-terminus assumed) | – | – | – | – | LD90 (S. aureus ATCC 6538; pH 7.3, 1% TSB): 18.75 µg/mL; LD100 (S. aureus ATCC 6538; pH 7.3, 1% TSB): 75 µg/mL |
| CCCCCCCCCCCCCCCC(=O)SC[C@H](NC(=O)[C@H](CO)NC(=O)[C@H](CO)NC(=O)[C@H](CO)NC(=O)[C@H](CCC(N)=O)NC(=O)CNC(=O)[C@H](CO)NC(=O)[C@@H](NC(=O)[C@H](CO)NC(=O)CNC(=O)[C@H](Cc1c[nH]cn1)NC(=O)[C@H](CCC(N)=O)NC(=O)CNC(=O)[C@H](Cc1c[nH]cn1)NC(=O)[C@@H](NC(=O)[C@H](CO)NC(=O)[C@H](CO)NC(=O)[C@H](Cc1c[nH]cn1)NC(=O)CNC(=O)[C@H](CO)NC(=O)[C@H](CO)NC(=O)[C@H](CO)NC(=O)CNC(=O)[C@H](Cc1c[nH]cn1)NC(=O)[C@H](CCC(N)=O)NC(=O)CN)[C@@H](C)O)[C@@H](C)O)C(N)=O [S-Pal-HRNR598–623] (H-GQHGSSSGHSSTHGQHGSTSGQSSSC(Palmitoyl)-NH2; N-terminus assumed) | – | – | – | – | LD90 (S. aureus ATCC 6538; pH 5.5, 0.25% glucose): 2.35 µg/mL; LD100 (S. aureus ATCC 6538; pH 5.5, 0.25% glucose): > 150 µg/mL |
| CCCCCCCCCCCCCCCC(=O)SC[C@H](N)C(=O)NCC(=O)N[C@@H](CCC(N)=O)C(=O)N[C@@H](Cc1c[nH]cn1)C(=O)NCC(=O)N[C@@H](C)C(=O)N[C@H](C(=O)N[C@@H](CO)C(=O)NCC(=O)N[C@@H](CCC(N)=O)C(=O)N[C@@H](CO)C(=O)N[C@@H](CO)C(=O)N[C@@H](CO)C(=O)N[C@@H](Cc1c[nH]cn1)C(=O)NCC(=O)N[C@@H](CCC(N)=O)C(=O)N[C@@H](Cc1c[nH]cn1)C(=O)NCC(=O)N[C@@H](CO)C(=O)NCC(=O)N[C@@H](CO)C(=O)N[C@@H](CO)C(=O)N[C@@H](CCC(N)=O)C(=O)N[C@@H](CO)C(=O)N[C@@H](CO)C(=O)N[C@@H](CCCNC(=N)N)C(=O)O)[C@@H](C)O [S-Pal-HRNR623–648] (H-C(Palmitoyl)GQHGATSGQSSSHGQHGSGSSQSSR-OH; N-terminus and C-terminus assumed) | – | – | – | – | LD90 (S. aureus ATCC 6538; pH 5.5, 0.25% glucose): 2.35 µg/mL; LD100 (S. aureus ATCC 6538; pH 5.5, 0.25% glucose): > 150 µg/mL |
| CCCCCCCCCCCCCCCC(=O)SC[C@H](N)C(=O)NCC(=O)N[C@@H](CCC(N)=O)C(=O)N[C@@H](Cc1c[nH]cn1)C(=O)NCC(=O)N[C@@H](C)C(=O)N[C@H](C(=O)N[C@@H](CO)C(=O)N[C@@H](CO)C(=O)NCC(=O)N[C@@H](CCC(N)=O)C(=O)N[C@@H](CO)C(=O)N[C@@H](CO)C(=O)N[C@@H](CO)C(=O)N[C@@H](Cc1c[nH]cn1)C(=O)NCC(=O)N[C@@H](CCC(N)=O)C(=O)N[C@@H](Cc1c[nH]cn1)C(=O)NCC(=O)N[C@@H](CO)C(=O)NCC(=O)N[C@@H](CO)C(=O)N[C@@H](CO)C(=O)N[C@@H](CCC(N)=O)C(=O)N[C@@H](CO)C(=O)N[C@@H](CO)C(=O)NCC(=O)N[C@@H](Cc1ccc(O)cc1)C(=O)NCC(=O)N[C@@H](CCCNC(=N)N)C(=O)O)[C@@H](C)O [S-Pal-HRNR1089–1117] (H-C(Palmitoyl)GQHGATSSGQSSSHGQHGSGSSQSSGYGR-OH; N-terminus and C-terminus assumed) | – | – | – | – | LD100 (S. aureus ATCC 6538; pH 5.5, 0.25% glucose): > 150 µg/mL |
| CCCCCCCCCCCCCCCC(=O)SC[C@H](NC(=O)CNC(=O)[C@H](CO)NC(=O)[C@H](CO)NC(=O)[C@H](CCC(N)=O)NC(=O)[C@H](Cc1c[nH]c2ccccc12)NC(=O)[C@H](CO)NC(=O)[C@H](CO)NC(=O)[C@H](CO)NC(=O)[C@H](CCC(=O)O)NC(=O)[C@H](Cc1c[nH]cn1)NC(=O)[C@H](Cc1c[nH]cn1)NC(=O)CNC(=O)[C@H](Cc1ccccc1)NC(=O)CNC(=O)[C@H](CO)NC(=O)[C@H](CO)NC(=O)[C@H](CCC(N)=O)NC(=O)CNC(=O)[C@H](CO)NC(=O)CNC(=O)[C@H](CO)NC(=O)CNC(=O)[C@H](Cc1c[nH]cn1)NC(=O)[C@H](CCCNC(=N)N)NC(=O)CN)C(N)=O [S-Pal-HRNR1389–1414] (H-GRHGSGSGQSSGFGHHESSSWQSSGC(Palmitoyl)-NH2; N-terminus assumed) | – | – | – | – | LD90 (S. aureus ATCC 6538; pH 5.5, 0.25% glucose): 1.18 µg/mL; LD100 (S. aureus ATCC 6538; pH 5.5, 0.25% glucose): 18.8 µg/mL |
| CCCCCCCCCCCCCCCC(=O)SC[C@H](NC(=O)[C@H](Cc1ccccc1)NC(=O)[C@H](Cc1c[nH]cn1)NC(=O)CNC(=O)[C@H](CO)NC(=O)CNC(=O)[C@H](CO)NC(=O)CNC(=O)[C@H](Cc1c[nH]cn1)NC(=O)[C@H](CCC(N)=O)NC(=O)[C@H](CO)NC(=O)[C@H](Cc1ccc(O)cc1)NC(=O)[C@H](C)NC(=O)[C@H](CO)NC(=O)[C@H](CO)NC(=O)[C@H](Cc1c[nH]cn1)NC(=O)CNC(=O)[C@H](CO)NC(=O)CNC(=O)[C@H](CO)NC(=O)[C@H](CCC(=O)O)NC(=O)[C@H](Cc1c[nH]cn1)NC(=O)[C@H](CCC(N)=O)NC(=O)CNC(=O)[C@H](Cc1ccccc1)NC(=O)[C@@H](NC(=O)[C@H](CO)NC(=O)[C@H](CO)NC(=O)[C@H](Cc1c[nH]cn1)NC(=O)CNC(=O)[C@@H](N)CO)C(C)C)C(N)=O [S-Pal-HRNR1748–1778] (H-SGHSSVFGQHESGSGHSSAYSQHGSGSGHFC(Palmitoyl)-NH2; N-terminus assumed) | – | – | – | – | LD90 (S. aureus ATCC 6538; pH 5.5, 0.25% glucose): 0.3 µg/mL; LD100 (S. aureus ATCC 6538; pH 5.5, 0.25% glucose): 9.38 µg/mL |
| HGSGLGHSSSHGQHGSGSGR [HR 1-8] | 4.7 | > 300 | > 300 | – | – |
| HGSGSGR [HR 2-9] | – | – | > 300 | > 300 | – |
| HGSRSGQSSRGERHGSSSGSSSH [HR 1-11] | 0.075 | – | – | – | – |
| HGSSSGSSSHYGQHGSGSR [HR 1-4] | – | – | > 300 | 150 | – |
| HSQRGSGSRQSPSYGRH [HR 2-16] | – | 37.5 | – | – | – |
| HSSSHGQHGSGSGR [HR 1-38] | – | > 300 | – | – | – |
| HTHSGHAHGQAGSQHGESGSSVHER [FLG-22044-2068] | 0.038 | 0.3 | – | – | – |
| HTHSGHTHGQAGSHYPESGSSVHER [FLG-21969-1993] | 0.038 | 0.3 | – | – | – |
| HTHSGHTHGQARSQHGESESIVHER [FLG-21742-1766] | 0.038 | 0.15 | – | – | – |
| HTHSGHTHGQSGSQHGESESIIHDR [FLG-21515-1539] | 0.075 | 0.59 | – | – | – |
| HTHSGHTHSQARSQHGESESTVHKR [FLG-21894-1918] | 0.038 | 0.3 | – | – | – |
| LGHSSSHGQHGSGSGRSSSRGPYESRLGH [HR 1-36] | 0.15 | 2.35 | – | – | – |

| Molecule | LD90 (P. aeruginosa ATCC 10145; pH 5.5, 0.25% glucose) [µg/mL] | LD100 (P. aeruginosa ATCC 10145; pH 5.5, 0.25% glucose) [µg/mL] | LD100 (P. aeruginosa ATCC 10145; pH 5.5, 1% TSB) [µg/mL] | LD90 (P. aeruginosa ATCC 10145; pH 5.5, 1% TSB) [µg/mL] | other results |
| --- | --- | --- | --- | --- | --- |
| QGSGSGQSPGHSQRGSGSRQSPSY [HR 2-1] | – | – | > 300 | > 300 | – |
| QGSGSGQSPSR [HR 1-6] | – | – | > 300 | > 300 | – |
| QGSGSGQSPSRGR [HR 1-7] | – | – | > 300 | > 300 | – |
| QSPSY [HR 2-3] | – | – | > 300 | > 300 | – |
| QSPSYGR [HR 2-6] | – | – | > 300 | > 300 | – |
| QSPSYGRHGSGSGR [HR 2-5] | – | – | > 300 | > 300 | – |
| QSSGHGR [HR 1-5] | – | – | > 300 | > 300 | – |
| RGSGSGHQGHSSSHGLGSGHRG [rev-HR 1-18] | < 0.019 | 0.3 | – | – | – |
| RQSPSYGRHGSGSGR [HR 2-14] | – | – | > 300 | 300 | – |
| SGQSSR [HR 1-2] | – | – | > 300 | > 300 | – |
| SGQSSRGER [HR 1-3] | – | – | > 300 | > 300 | – |
| SLSSGHGSGHGHQRGGHRSGSG [scr-HR 1-18] | < 0.019 | 0.15 | – | – | – |
| SQHGSGSGHSSGYGQHGSR [HR 1-1] | – | – | > 300 | > 300 | – |
| SRQSPSYGRHGSGR [HR 2-15] | – | – | > 300 | 75 | – |
| SRQSPSYGRHGSGSGR [HR 2-13] | – | – | > 300 | > 300 | – |
| SSSRGPY [HR 1-10] | – | – | > 300 | > 300 | – |
| SSSSR [HR 1-9] | – | – | > 300 | – | – |
| TAGRRGSGH [FLG-22097-2105] | > 300 | > 300 | – | – | – |
| THEHEQSHQRRDRQTHEDKQNRQR [RPTN747-770] | 0.3 | 150 | – | – | – |
